According to patent publication US20210386720A1, “METHODS OF TREATING CNS TUMORS WITH TESETAXEL” (Odonate Therapeutics, Inc., priority 2018, published 2021):

Legend:
taxane-resistant tumors = test: Nonclinical studies of activity against taxane-resistant tumors
[1] = In vivo tissue distribution of 14C-tesetaxel in dogs; parameters: species or system dog; conditions: for t1/2 / Cerebellum / Cerebrum / Plasma: 0.6 mg/kg; for Cerebellum / Cerebrum / Plasma: 14 days post-dose, radioactivity
Method: (§1) The in vivo tissue distribution of tesetaxel was previously investigated in mice treated with ^14C-tesetaxel at 4 mg/kg and sacrificed between 1-168 hours.^1 Two additional studies have been conducted in dogs and monkeys.
(§2) Dogs and monkeys were dosed at 0.6 mg/kg and 1 mg/kg of ^14C-tesetaxel, respectively, and tissue distribution was assessed at 336 hours post-dose (14 days). These doses equate to ˜44% of the 27 mg/m^2 dose in an ongoing Phase 3 clinical study. In vivo radioactivity concentrations in the cerebrum and cerebellum were compared to plasma concentrations and mean tumor GI50 (concentration resulting in 50% tumor growth inhibition) determined by MTT assay in 23 tumor cell lines.

[2] = Human plasma and CNS tissue binding by rapid equilibrium dialysis; assay type: in vitro ADME
[3] = Terminal plasma half-life in humans
[4] = In vivo tissue distribution of 14C-tesetaxel in monkeys; parameters: species or system monkey; conditions: for t1/2 / Cerebellum / Cerebrum / Plasma: 1 mg/kg; for Cerebellum / Cerebrum / Plasma: 14 days post-dose, radioactivity
Method: as §1, §2

[5] = dog, single oral dose of 0.6 mg/kg, N=3
[6] = monkey, single oral dose of 1 mg/kg, N=3

Question: With `CC(=O)O[C@@]12CO[C@@H]1CC[C@@]1(C)[C@@H]3O[C@H](CN(C)C)O[C@@H]3C3=C(C)[C@@H](OC(=O)[C@H](O)[C@@H](NC(=O)OC(C)(C)C)c4ncccc4F)C[C@@](O)([C@@H](OC(=O)c4ccccc4)[C@@H]12)C3(C)C` [Tesetaxel] as the compound, how does the “Activity against taxane-resistant tumors” value (taxane-resistant tumors) read?
Answer: retain activity against taxane-resistant tumors

Question: And the t1/2 ([1]; dog, IV)?
Answer: 72 h

Question: And the Cerebellum ([1]; dog, IV)?
Answer: 7.8 ± 0.6 ng eq/g

Question: And the Cerebrum ([1]; dog, IV)?
Answer: 16.8 ± 2.9 ng eq/g

Question: What about the Plasma ([1]; dog, IV) of the same compound?
Answer: 0.5 ± 0.0 ng eq/mL

Question: And the t1/2 ([1]; dog, PO)?
Answer: 96 h

Question: And the Cerebellum ([1]; dog, PO)?
Answer: 6.1 ± 1.9 ng eq/g

Question: And the Cerebrum ([1]; dog, PO)?
Answer: 10.9 ± 4.0 ng eq/g

Question: And the Plasma ([1]; dog, PO)?
Answer: 0.9 ± 0.1 ng eq/mL

Question: And the Cerebrum/Plasma ([1]; dog, single oral dose of 0.6 mg/kg, 14 days after dosing)?
Answer: 12x

Question: And the “14C-Tesetaxel Radioactivity Concentration 14 Days after Dosing, Cerebrum (Mean ± SD)” value [1, 5]?
Answer: 10.9 ± 4.0 ng eq./g or mL

Question: And the “14C-Tesetaxel Radioactivity Concentration 14 Days after Dosing, Plasma (Mean ± SD)” value [1, 5]?
Answer: 0.9 ± 0.1 ng eq./g or mL

Question: And the CNS penetration ([1]; dogs, oral (PO) or intravenous (IV) administration)?
Answer: CNS penetration was observed

Question: And the CNS tissue binding ([2]; CNS tissue)?
Answer: 98.9%

Question: And the Human plasma binding ([2]; plasma)?
Answer: 98.2%

Question: And the “Terminal plasma half-life (t1/2)” value [3]?
Answer: ~190 h

Question: And the t1/2 ([4]; monkey, IV)?
Answer: 72 h

Question: And the Cerebellum ([4]; monkey, IV)?
Answer: 18 ± 1.0 ng eq/g

Question: What about the Cerebrum ([4]; monkey, IV) of the same compound?
Answer: 21 ± 2.0 ng eq/g

Question: And the Plasma ([4]; monkey, IV)?
Answer: 1.0 ± 0.0 ng eq/mL

Question: What about the t1/2 ([4]; monkey, PO) of the same compound?
Answer: 52.8 h

Question: What about the Cerebellum ([4]; monkey, PO) of the same compound?
Answer: 4.4 ± 1.7 ng eq/g

Question: What about the Cerebrum ([4]; monkey, PO) of the same compound?
Answer: 6.5 ± 3.8 ng eq/g

Question: What about the Plasma ([4]; monkey, PO) of the same compound?
Answer: 0.9 ± 0.2 ng eq/mL

Question: What about the Cerebrum/Plasma ([4]; monkey, single oral dose of 1 mg/kg, 14 days after dosing) of the same compound?
Answer: 7x

Question: What about the “14C-Tesetaxel Radioactivity Concentration 14 Days after Dosing, Cerebrum (Mean ± SD)” value [4, 6] of the same compound?
Answer: 6.5 ± 3.8 ng eq./g or mL

Question: And the “14C-Tesetaxel Radioactivity Concentration 14 Days after Dosing, Plasma (Mean ± SD)” value [4, 6]?
Answer: 0.9 ± 0.2 ng eq./g or mL

Question: And the CNS penetration ([4]; monkeys, oral (PO) or intravenous (IV) administration)?
Answer: CNS penetration was observed
